Test results: patent US10828301B2, “2,4-pyrimidinediamine compounds and their uses” (Rigel Pharmaceuticals, Inc, priority 2002, dated 2020)

Key:
[1] = tested on: proteins downstream of Syk kinase and LYN kinase in activated CHMC cells; assay: Phosphorylation of proteins in the FcεRI signal transduction cascade in activated CHMC cells; assay type: cell-based, human; conditions: FIG. 10
CHMC cells = assay: anti-IgE-induced calcium ion flux in CHMC cells; assay type: cell-based, human; conditions: 10 μM compound
Syk kinase = Syk kinase (Homo sapiens (Human), UniProt P43405); assay: Isolated Syk kinase biochemical assay (phosphorylation of a peptide or endogenous substrate); conditions: increasing concentrations, FIG. 8

Q: Oc1cccc(Nc2ncc(F)c(Nc3cccc(O)c3)n2)c1 [Compound R921218, N2,N4-Bis(3-hydroxyphenyl)-5-fluoro-2,4-pyrimidinediamine] was tested. Which “phosphorylation of proteins downstream of Syk kinase in the FcεRI signal transduction cascade” value [1] did it give?
A: inhibit phosphorylation

Q: What about the “anti-IgE-induced Ca2+ flux” value (CHMC cells) of the same molecule?
A: inhibited anti-IgE-induced Ca^2+ flux

Q: What about the “Syk kinase phosphorylation of an endogenous substrate (LAT) and a peptide substrate” value (Syk kinase) of the same molecule?
A: dose responsive inhibition
